US20250195498A1, “INHIBITOR OF CELLULAR PURINE NUCLEOTIDE SALVAGE PATHWAY ENZYME FOR USE IN THE TREATMENT AND/OR PREVENTION OF HELICOBACTER PYLORI INFECTION AND/OR DISEASE ASSOCIATED WITH SUCH INFECTION AND PHARMACEUTICAL COMPOSITION COMPRISING THE SAME” (UNIWERSYTET WARSZAWSKI, priority 2022, published 2025)
In brackets after ≈: the same amount, converted by molar mass. Several values for one entry are separate records, joined by “and”; a condition that tells them apart may be missing. Identical values can stand only once. Like-named read-outs stand apart in the source and are kept apart here. Marks after values point to notes of the source that are not given here. One block for each compound: values may come before it.

Columns and labels:
H. pylori strain 26695 = experiment: Growth curve method / MIC in liquid culture, strain 26695; format: cell-based, Helicobacter pylori; details: strain 26695; for MIC: read-out: MIC; for inhibition of bacterial growth: concentrations up to 5 mM
Experimental: (§1) The representative PNP inhibitor from H. pylori included in this study was immucillin A. The experiment was conducted using the growth curve method (two-fold serial dilutions in liquid medium). The tested H. pylori strains were cultured in Petri dishes with BHI solid medium supplemented with 10% FBS and 1% H. pylori Selective Supplement antibiotic kit, in anaerostats under microaerophilic conditions (5% 02, 10% CO2, 85% N2) at 37° C. for 3 days. Liquid culture of H. pylori was conducted overnight with shaking at 37° C. under microaerophilic conditions in BHI medium supplemented with 10% FBS and 1% H. pylori Selective Supplement antibiotic kit. Subsequently, for the essential experiment of determining the minimum inhibitory concentration (MIC), double strengthened liquid BHI medium was prepared, that is, supplemented with 20% FBS and a 2% set of H. pylori Selective Supplement antibiotics.
(§2) Bacterial proliferation inhibition experiments were carried out in 24-deep-well 2 ml flat-bottomed plates at a solution volume per well of 0.5 ml. In a single well, double strengthened (relative to the concentration planned for testing) solutions of the test inhibitor and double strengthened liquid BHI medium inoculated with H. pylori (10^4-10^5 CFU/ml in the final volume in the well, corresponding to the optical density of the culture OD600=0.05) were mixed together in a 1:1 ratio.
(§3) Kanamycin at a concentration of 25 μg/ml (Irie et al., 1997) was used as a positive control, while Mili-Q deionized water and BHI medium not inoculated with bacteria were used as negative controls. Plates were shaken at 37° C., under microaerophilic conditions. […] After 24 hours, the OD600 of samples containing the negative control, i.e. with Mili-Q deionized water, was about 1.2-1.4, corresponding to a bacterial concentration of about […].
(§4) In addition, the method proposed by Knezevic et al. (2018) was used to check whether the observed OD600 was from live bacterial cells. For this purpose, an equal volume of Christensen's double strength urea broth (that is, containing twice the concentration of all components) was added to the wells after incubation, and the plates were additionally incubated for 4 hours in an oxygen atmosphere at 37° C. During incubation, in wells with urease produced by live bacteria, urea is converted to ammonia and carbon dioxide, changing the pH of the solution and thus the colour of the phenol red indicator contained in the medium (from orange to purple).
(§5) All experiments were performed in triplicate.
The experiments were carried out using the growth curve method as described in Example 3, and the results obtained for two of the compounds tested are shown in FIG. 5. As the water solubility of the compounds tested, with the exception of 2,6-diCl-Pu, is relatively poor, two experiments were carried out: the first with the maximum concentration possible under the experimental conditions in aqueous solution with a small admixture of DMSO, and the second with higher concentrations that led to partial precipitation of the compound.
The antibacterial activity of two compounds, mefloquine (in the form of hydrochloride) and quinine, described in the literature as potent in vitro inhibitors of the PNP enzyme from Plasmodium falciparum (Dziekan et al., 2019), was tested. Using a two-fold serial dilution method in liquid medium (as described in Example 3), the MIC values for mefloquine and quinine were determined against clinical H. pylori strains resistant to MTZ, CLR and MTZ+CLR (M26, M91, M92 and M93), as well as the reference H. pylori strain 26695. Four clinical H. pylori strains isolated from adults, from primary infections (the subjects had never previously been treated against H. pylori infection) were tested. These strains come from the collection of the Department of Microbiology of the Medical University of Wroclaw and were obtained due to collaboration with Prof. Grażyna Gościniak, MD, PhD. […]

H. pylori = details: 2021, cited from earlier work; for MIC (literature): MTZ according to EUCAST, kanamycin according to Irie et al., 1997
[1] = molecular target: T1, AdSS from H. pylori strain 26695 (Helicobacter pylori, UniProt P56137); experiment: AdSS enzyme activity assay (adenylosuccinate formation, 280 nm); format: biochemical
T1 construct: made in house; host or cells: E. coli BL21 (DE3)
T1 sequence (P56137 1-411): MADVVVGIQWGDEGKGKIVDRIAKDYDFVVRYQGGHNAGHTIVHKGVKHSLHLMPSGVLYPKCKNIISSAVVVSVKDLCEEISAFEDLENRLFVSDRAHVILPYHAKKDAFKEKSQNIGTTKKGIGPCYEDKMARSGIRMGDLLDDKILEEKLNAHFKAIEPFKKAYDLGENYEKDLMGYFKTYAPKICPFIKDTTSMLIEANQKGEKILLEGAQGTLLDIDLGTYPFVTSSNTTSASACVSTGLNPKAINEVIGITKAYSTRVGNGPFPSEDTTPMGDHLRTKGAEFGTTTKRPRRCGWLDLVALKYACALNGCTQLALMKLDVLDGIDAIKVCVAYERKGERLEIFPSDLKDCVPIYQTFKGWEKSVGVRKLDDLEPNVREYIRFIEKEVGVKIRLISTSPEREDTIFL
Experimental: Enzymatic activity measurements were carried out in the similar manner as described in Bubić et al. (2018), at 25° C., in cuvettes with an optical path length of 1 cm containing 1 ml of reaction mixture consisting of 20 mM Hepes/NaOH buffer pH 7.7, 1 mM MgSO4 and the substrates, GTP, IMP and Asp. Saturating concentrations of substrates, namely GTP: 0.06 mM, IMP: 0.15 mM and Asp: 5 mM, were used to measure specific activity. The extinction coefficient at 280 nm of 1.17×10^4 M^−1 cm^−1 (adenylosuccinate formation) was used to calculate the concentration of the product formed (Rudolph and Fromm 1969). One unit (U) of AdSS specific activity is defined as μmol of adenylosuccinate produced per minute at 25° C. Specific activity is expressed as units of enzymatic activity per mg of protein (U/mg).
Inhibition of AdSS by PLP was examined first at saturation with all enzyme substrates and with increasing concentrations of the PLP inhibitor.
To determine the extent to which PLP-induced inactivation develops over time, the enzyme at low concentration (0.022 μM) was incubated at 25° C. in Hepes/NaOH buffer pH 7.0, in the presence of 1.11 mM MgSO4, 5.55 mM Asp, 167 μM IMP and PLP at various concentrations (ranging between 0.03 μM and 8.1 μM). The mixture contained all components necessary for the reaction with the exception of GTP, which, according to Dong and Fromm (1990), competes with PLP. Aliquots of 900 μl were taken from the incubated mixture at specified time intervals, placed in a cuvette and 100 μl of 0.6 mM GTP solution was added to initiate the reaction. The enzyme activity was determined and analysed in the known manner as described above.
Exponential decays were fitted to the data obtained for each concentration and the reaction rate constant of the inactivation process, k, and the residual enzymatic activity observed when the system reached equilibrium, A∞, were obtained as fitting parameters. From these parameters, the half-life of the inactivation process activity, t1/2, was calculated. The dependence of these three parameters on PLP concentration is shown in the lower panel of FIG. 12.
The inhibition of AdSS from H. pylori by pyridoxal (PI-h) was studied at saturation with all enzyme substrates and with increasing concentrations of the inhibitor, similar to that for PLP in Example 10a).

[2] = system: H. pylori strain M91 (MTZ + CLR resistant); experiment: Growth curve method / MIC, resistant strain M91; format: cell-based, Helicobacter pylori; details: for MIC: strain M91, MTZ + CLR resistant
Experimental: as §1, §2, §3, §4, §5
(§6) The antibacterial activity of two compounds, mefloquine (in the form of hydrochloride) and quinine, described in the literature as potent in vitro inhibitors of the PNP enzyme from Plasmodium falciparum (Dziekan et al., 2019), was tested. Using a two-fold serial dilution method in liquid medium (as described in Example 3), the MIC values for mefloquine and quinine were determined against clinical H. pylori strains resistant to MTZ, CLR and MTZ+CLR (M26, M91, M92 and M93), as well as the reference H. pylori strain 26695. Four clinical H. pylori strains isolated from adults, from primary infections (the subjects had never previously been treated against H. pylori infection) were tested. These strains come from the collection of the Department of Microbiology of the Medical University of Wroclaw and were obtained due to collaboration with Prof. Grażyna Gościniak, MD, PhD. The tested compounds belong to organic substances and are soluble in DMSO. The maximum tested concentration of quinine in H. pylori culture was 0.56 mM, and that of mefloquine was 2.25 mM. […] On each occasion, the effect of DMSO alone on the growth of the H. pylori strains tested was also checked. […] Kanamycin was used as a positive control and Mili-Q deionised water as a negative control. All experiments were carried out in triplicate. […]

[3] = system: H. pylori strain M92 (CLR resistant); experiment: Growth curve method / MIC, resistant strain M92; format: cell-based, Helicobacter pylori; details: for MIC: strain M92, CLR resistant
Experimental: as §1, §2, §3, §4, §5, §6

[4] = system: H. pylori strain M93 (MTZ resistant); experiment: Growth curve method / MIC, resistant strain M93; format: cell-based, Helicobacter pylori; details: for MIC: strain M93, MTZ resistant
Experimental: as §1, §2, §3, §4, §5, §6

[5] = system: H. pylori strain M26 (MTZ + CLR resistant); experiment: Growth curve method / MIC, resistant strain M26; format: cell-based, Helicobacter pylori; details: for MIC: strain M26, MTZ + CLR resistant
Experimental: as §1, §2, §3, §4, §5, §6

H. pylori strain P12 = experiment: Growth curve method / MIC, strain P12; format: cell-based, Helicobacter pylori; details: strain P12; concentrations up to 5 mM
Experimental: as §1, §2, §3, §4, §5
(§7) Inhibition by PLP and its metabolic precursors of the growth of H. pylori strains: 26695, N6 and P12 in culture was investigated using the growth curve method as described in Example 3. From these experiments, the minimum inhibitory concentration was determined as the lowest concentration of a compound that inhibits the visible growth of the bacteria, compared to growth in control samples without the tested compounds. All experiments were carried out in triplicate.

H. pylori strain N6 = experiment: Growth curve method / MIC, strain N6; format: cell-based, Helicobacter pylori; details: strain N6; concentrations up to 5 mM
Experimental: as §1, §2, §3, §4, §5, §7

[6] = Helicobacter pylori, read-out: MIC
[7] = listed as Mefloquine (hydrochloride)
[8] = listed as Mefloquine (hydrochloride), read-out: MIC

SMILES: Cc1ncc([N+](=O)[O-])n1CCO [Metronidazole, metronidazole]
inhibition at 12 µM (H. pylori strain 26695; Helicobacter pylori, metronidazole 12 μM (2 μg/ml), not maximum solubility, read-out: % inhibition of H. pylori cell cultures): 89 to 92% | MIC (literature) (H. pylori): 8 ^f μg/ml and 47 μM | MIC (literature) (H. pylori; listed as MTZ): 47 μM and 8 μg/ml

inhibition of AdSS from H. pylori [1]: strongly inhibits
SMILES: O=CN(O)CC(=O)O [hadacidin]
inhibition of proliferation of H. pylori (H. pylori; Wojtyś et al.): does not inhibit the proliferation of bacteria

MIC [2, 6]: 50 µM and 21 µg/mL | MIC [2, 7]: (21 μg/ml) | MIC [2, 8]: 50 µM | MIC [3, 6]: 40 µM and 17 µg/mL | MIC [3, 7]: (17 μg/ml) | MIC [3, 8]: 40 µM (≈ 15.1 µg/mL) | MIC (H. pylori strain 26695; Helicobacter pylori): 50 µM and 21 µg/mL | MIC [4, 6]: 35 µM and 14.5 µg/mL | MIC [4, 7]: (14.5 μg/ml) | MIC [4, 8]: 35 µM (≈ 13.2 µg/mL) | MIC [5, 6]: 35 µM and 14.5 µg/mL | MIC [5, 7]: (14.5 μg/ml) | MIC [5, 8]: 35 µM
SMILES: OC(c1cc(C(F)(F)F)nc2c(C(F)(F)F)cccc12)C1CCCCN1 (stereo not drawn) [mefloquine]

SMILES: Cc1ncc(CO)c(CN)c1O.Cl.Cl [pyridoxamine dihydrochloride]
inhibition of bacterial growth (H. pylori strain P12): no inhibition of bacterial growth | inhibition of bacterial growth (H. pylori strain 26695): no inhibition of bacterial growth | inhibition of bacterial growth (H. pylori strain N6): no inhibition of bacterial growth

SMILES: Cc1ncc(CO)c(CO)c1O [pyridoxine]
inhibition of bacterial growth (H. pylori strain P12): no inhibition of bacterial growth | inhibition of bacterial growth (H. pylori strain 26695): no inhibition of bacterial growth | inhibition of bacterial growth (H. pylori strain N6): no inhibition of bacterial growth

SMILES: C=C[C@H]1C[N@@]2CC[C@H]1C[C@H]2[C@H](O)c1ccnc2ccc(OC)cc12 [quinine]
MIC [2, 6]: ≥ 560 µM and ≥ 182 µg/mL | inhibition at 400 µM ([2]; Helicobacter pylori, strain M91, quinine 0.4 mM, read-out: percentage of growth inhibition): 78% | inhibition at 560 µM ([2]; Helicobacter pylori, strain M91, quinine 0.56 mM (highest tested), read-out: percentage of growth inhibition): 86% | MIC [2]: ≥0.56 mM and (≥182 μg/ml) | MIC [3, 6]: ≥ 400 µM and ≥ 130 µg/mL | inhibition at 400 µM ([3]; Helicobacter pylori, strain M92, quinine 0.4 mM, read-out: percentage of growth inhibition): 76% | MIC [3]: ≥0.4 mM and (≥130 μg/ml) | inhibition at 400 µM (H. pylori strain 26695; Helicobacter pylori, quinine 0.4 mM, read-out: percentage of growth inhibition): 91% | MIC (H. pylori strain 26695; Helicobacter pylori): ≥ 400 µM and ≥ 130 µg/mL | MIC [4, 6]: ≥ 400 µM and ≥ 130 µg/mL | inhibition at 400 µM ([4]; Helicobacter pylori, strain M93, quinine 0.4 mM, read-out: percentage of growth inhibition): 91% | MIC [4]: ≥0.4 mM and (≥130 μg/ml) | MIC [5, 6]: ≥ 400 µM and ≥ 130 µg/mL | inhibition at 400 µM ([5]; Helicobacter pylori, strain M26, quinine 0.4 mM, read-out: percentage of growth inhibition): 87% | MIC [5]: ≥0.4 mM and (≥130 μg/ml)
